≈ marks a conversion by molar mass, not a printed value. Calls of active or inactive are those of the source. No cut-off for these calls is given here.
Test system: Candida albicans
Experiment: Antifungal activity against Candida albicans after 24 hrs by micro broth dilution method
Format: functional
Conditions: not given

MIC80 [µM] | SMILES
260 (≈ 123 µg/mL) | O=c1nc(N(Cc2ccc(F)cc2)CC(O)(Cn2cncn2)c2ccc(F)cc2F)c(F)c[nH]1 (stereo not drawn)
310 (≈ 126 µg/mL) | C=CCN(CC(O)(Cn1cncn1)c1ccc(F)cc1F)c1nc(=O)[nH]cc1F (stereo not drawn)
130 (≈ 63.8 µg/mL) | O=c1nc(N(Cc2ccccc2Cl)CC(O)(Cn2cncn2)c2ccc(F)cc2F)c(F)c[nH]1 (stereo not drawn)
280 (≈ 128 µg/mL) | O=c1nc(N(Cc2ccccc2)CC(O)(Cn2cncn2)c2ccc(F)cc2F)c(F)c[nH]1 (stereo not drawn)
490 (≈ 63.3 µg/mL) | Nc1nc(=O)[nH]cc1F [FLUCYTOSINE]
580 (≈ 253 µg/mL) | CCCCCN(CC(O)(Cn1cncn1)c1ccc(F)cc1F)c1nc(=O)[nH]cc1F (stereo not drawn)
950 (≈ 508 µg/mL) | CCCCCCCCCCCCN(CC(O)(Cn1cncn1)c1ccc(F)cc1F)c1nc(=O)[nH]cc1F (stereo not drawn)
20 (≈ 10.5 µg/mL) | O=c1nc(N(Cc2ccc(Cl)c(Cl)c2)CC(O)(Cn2cncn2)c2ccc(F)cc2F)c(F)c[nH]1 (stereo not drawn)
310 (≈ 127 µg/mL) | CCCN(CC(O)(Cn1cncn1)c1ccc(F)cc1F)c1nc(=O)[nH]cc1F (stereo not drawn)
1010 (≈ 512 µg/mL) | CCCCCCCCCCN(CC(O)(Cn1cncn1)c1ccc(F)cc1F)c1nc(=O)[nH]cc1F (stereo not drawn)
300 (≈ 127 µg/mL) | CCCCN(CC(O)(Cn1cncn1)c1ccc(F)cc1F)c1nc(=O)[nH]cc1F (stereo not drawn)

Test system: Calf thymus DNA
Experiment: Inhibition of neutral red binding to calf thymus DNA by UV-Visible spectrometric analysis
Format: nucleic-acid assay
Conditions: Bos taurus

inhibition | SMILES
Dose-dependent effect | O=c1nc(N(Cc2ccc(Cl)c(Cl)c2)CC(O)(Cn2cncn2)c2ccc(F)cc2F)c(F)c[nH]1 (stereo not drawn)

Test system: Candida albicans
Experiment: Fungicidal activity against Candida albicans assessed as log reduction in fungal load at 4 time MIC up to 1 hr by time kill assay
Format: functional
Conditions: not given

SMILES | Activity [log10CFU/ml]
O=c1nc(N(Cc2ccc(Cl)c(Cl)c2)CC(O)(Cn2cncn2)c2ccc(F)cc2F)c(F)c[nH]1 (stereo not drawn) | >3

Test system: Calf thymus DNA
Experiment: Binding affinity to calf thymus DNA assessed as increase in maximum absorption of DNA by UV-Visible spectrometric analysis
Format: nucleic-acid assay
Conditions: Bos taurus

Activity | K [×10³ L/mol] | SMILES
Dose-dependent effect | 4.88 | O=c1nc(N(Cc2ccc(Cl)c(Cl)c2)CC(O)(Cn2cncn2)c2ccc(F)cc2F)c(F)c[nH]1 (stereo not drawn)

Test system: Aspergillus fumigatus
Experiment: Antifungal activity against Aspergillus fumigatus after 24 hrs by micro broth dilution method
Format: functional
Conditions: not given

MIC80 [µM] | SMILES
260 (≈ 123 µg/mL) | O=c1nc(N(Cc2ccc(F)cc2)CC(O)(Cn2cncn2)c2ccc(F)cc2F)c(F)c[nH]1 (stereo not drawn)
620 (≈ 252 µg/mL) | C=CCN(CC(O)(Cn1cncn1)c1ccc(F)cc1F)c1nc(=O)[nH]cc1F (stereo not drawn)
260 (≈ 128 µg/mL) | O=c1nc(N(Cc2ccccc2Cl)CC(O)(Cn2cncn2)c2ccc(F)cc2F)c(F)c[nH]1 (stereo not drawn)
140 (≈ 63.9 µg/mL) | O=c1nc(N(Cc2ccccc2)CC(O)(Cn2cncn2)c2ccc(F)cc2F)c(F)c[nH]1 (stereo not drawn)
1980 (≈ 256 µg/mL) | Nc1nc(=O)[nH]cc1F [FLUCYTOSINE]
580 (≈ 253 µg/mL) | CCCCCN(CC(O)(Cn1cncn1)c1ccc(F)cc1F)c1nc(=O)[nH]cc1F (stereo not drawn)
1910 (≈ 1020 µg/mL) | CCCCCCCCCCCCN(CC(O)(Cn1cncn1)c1ccc(F)cc1F)c1nc(=O)[nH]cc1F (stereo not drawn)
30 (≈ 15.8 µg/mL) | O=c1nc(N(Cc2ccc(Cl)c(Cl)c2)CC(O)(Cn2cncn2)c2ccc(F)cc2F)c(F)c[nH]1 (stereo not drawn)
620 (≈ 253 µg/mL) | CCCN(CC(O)(Cn1cncn1)c1ccc(F)cc1F)c1nc(=O)[nH]cc1F (stereo not drawn)
2020 (≈ 1020 µg/mL) | CCCCCCCCCCN(CC(O)(Cn1cncn1)c1ccc(F)cc1F)c1nc(=O)[nH]cc1F (stereo not drawn)
600 (≈ 253 µg/mL) | CCCCN(CC(O)(Cn1cncn1)c1ccc(F)cc1F)c1nc(=O)[nH]cc1F (stereo not drawn)

Test system: Candida albicans
Experiment: Antifungal activity against Candida albicans ATCC 90023 after 24 hrs by micro broth dilution method
Format: functional
Conditions: ATCC 90023, 24 h

MIC80 [µM] | SMILES
530 (≈ 251 µg/mL) | O=c1nc(N(Cc2ccc(F)cc2)CC(O)(Cn2cncn2)c2ccc(F)cc2F)c(F)c[nH]1 (stereo not drawn)
620 (≈ 252 µg/mL) | C=CCN(CC(O)(Cn1cncn1)c1ccc(F)cc1F)c1nc(=O)[nH]cc1F (stereo not drawn)
260 (≈ 128 µg/mL) | O=c1nc(N(Cc2ccccc2Cl)CC(O)(Cn2cncn2)c2ccc(F)cc2F)c(F)c[nH]1 (stereo not drawn)
280 (≈ 128 µg/mL) | O=c1nc(N(Cc2ccccc2)CC(O)(Cn2cncn2)c2ccc(F)cc2F)c(F)c[nH]1 (stereo not drawn)
30 (≈ 3.87 µg/mL) | Nc1nc(=O)[nH]cc1F [FLUCYTOSINE]
580 (≈ 253 µg/mL) | CCCCCN(CC(O)(Cn1cncn1)c1ccc(F)cc1F)c1nc(=O)[nH]cc1F (stereo not drawn)
1910 (≈ 1020 µg/mL) | CCCCCCCCCCCCN(CC(O)(Cn1cncn1)c1ccc(F)cc1F)c1nc(=O)[nH]cc1F (stereo not drawn)
8 (≈ 4.2 µg/mL) | O=c1nc(N(Cc2ccc(Cl)c(Cl)c2)CC(O)(Cn2cncn2)c2ccc(F)cc2F)c(F)c[nH]1 (stereo not drawn)
310 (≈ 127 µg/mL) | CCCN(CC(O)(Cn1cncn1)c1ccc(F)cc1F)c1nc(=O)[nH]cc1F (stereo not drawn)
2020 (≈ 1020 µg/mL) | CCCCCCCCCCN(CC(O)(Cn1cncn1)c1ccc(F)cc1F)c1nc(=O)[nH]cc1F (stereo not drawn)
300 (≈ 127 µg/mL) | CCCCN(CC(O)(Cn1cncn1)c1ccc(F)cc1F)c1nc(=O)[nH]cc1F (stereo not drawn)

Test system: Candida tropicalis
Experiment: Antifungal activity against Candida tropicalis after 24 hrs by micro broth dilution method
Format: functional
Conditions: not given

MIC80 [µM] | SMILES
530 (≈ 251 µg/mL) | O=c1nc(N(Cc2ccc(F)cc2)CC(O)(Cn2cncn2)c2ccc(F)cc2F)c(F)c[nH]1 (stereo not drawn)
620 (≈ 252 µg/mL) | C=CCN(CC(O)(Cn1cncn1)c1ccc(F)cc1F)c1nc(=O)[nH]cc1F (stereo not drawn)
260 (≈ 128 µg/mL) | O=c1nc(N(Cc2ccccc2Cl)CC(O)(Cn2cncn2)c2ccc(F)cc2F)c(F)c[nH]1 (stereo not drawn)
280 (≈ 128 µg/mL) | O=c1nc(N(Cc2ccccc2)CC(O)(Cn2cncn2)c2ccc(F)cc2F)c(F)c[nH]1 (stereo not drawn)
1980 (≈ 256 µg/mL) | Nc1nc(=O)[nH]cc1F [FLUCYTOSINE]
290 (≈ 127 µg/mL) | CCCCCN(CC(O)(Cn1cncn1)c1ccc(F)cc1F)c1nc(=O)[nH]cc1F (stereo not drawn)
950 (≈ 508 µg/mL) | CCCCCCCCCCCCN(CC(O)(Cn1cncn1)c1ccc(F)cc1F)c1nc(=O)[nH]cc1F (stereo not drawn)
30 (≈ 15.8 µg/mL) | O=c1nc(N(Cc2ccc(Cl)c(Cl)c2)CC(O)(Cn2cncn2)c2ccc(F)cc2F)c(F)c[nH]1 (stereo not drawn)
620 (≈ 253 µg/mL) | CCCN(CC(O)(Cn1cncn1)c1ccc(F)cc1F)c1nc(=O)[nH]cc1F (stereo not drawn)
1010 (≈ 512 µg/mL) | CCCCCCCCCCN(CC(O)(Cn1cncn1)c1ccc(F)cc1F)c1nc(=O)[nH]cc1F (stereo not drawn)
600 (≈ 253 µg/mL) | CCCCN(CC(O)(Cn1cncn1)c1ccc(F)cc1F)c1nc(=O)[nH]cc1F (stereo not drawn)

Test system: Candida albicans
Experiment: Potency index, ratio of 5-fluorocytosine MIC80 to compound MIC80 for Candida albicans
Format: functional
Conditions: not given

SMILES | Ratio
O=c1nc(N(Cc2ccc(Cl)c(Cl)c2)CC(O)(Cn2cncn2)c2ccc(F)cc2F)c(F)c[nH]1 (stereo not drawn) | 8

Test system: Candida albicans
Experiment: Induction of inner membrane permeabilization in Candida albicans assessed as propidium iodide uptake at 12 times MIC up to 105 mins by fluorescence assay
Format: functional, organism-based
Conditions: not given

SMILES | Activity
O=c1nc(N(Cc2ccc(Cl)c(Cl)c2)CC(O)(Cn2cncn2)c2ccc(F)cc2F)c(F)c[nH]1 (stereo not drawn) | Active

Test system: Candida albicans
Experiment: Potency index, ratio of fluconazole MIC80 to compound MIC80 for Candida albicans
Format: functional
Conditions: not given

SMILES | Ratio
O=c1nc(N(Cc2ccc(Cl)c(Cl)c2)CC(O)(Cn2cncn2)c2ccc(F)cc2F)c(F)c[nH]1 (stereo not drawn) | 8

Test system: Candida parapsilosis
Experiment: Antifungal activity against Candida parapsilosis ATCC 22019 after 24 hrs by micro broth dilution method
Format: functional
Conditions: Lodderomyces parapsilosis, ATCC 22019, 24 h

MIC80 [µM] | SMILES
530 (≈ 251 µg/mL) | O=c1nc(N(Cc2ccc(F)cc2)CC(O)(Cn2cncn2)c2ccc(F)cc2F)c(F)c[nH]1 (stereo not drawn)
1250 (≈ 508 µg/mL) | C=CCN(CC(O)(Cn1cncn1)c1ccc(F)cc1F)c1nc(=O)[nH]cc1F (stereo not drawn)
520 (≈ 255 µg/mL) | O=c1nc(N(Cc2ccccc2Cl)CC(O)(Cn2cncn2)c2ccc(F)cc2F)c(F)c[nH]1 (stereo not drawn)
280 (≈ 128 µg/mL) | O=c1nc(N(Cc2ccccc2)CC(O)(Cn2cncn2)c2ccc(F)cc2F)c(F)c[nH]1 (stereo not drawn)
990 (≈ 128 µg/mL) | Nc1nc(=O)[nH]cc1F [FLUCYTOSINE]
1170 (≈ 511 µg/mL) | CCCCCN(CC(O)(Cn1cncn1)c1ccc(F)cc1F)c1nc(=O)[nH]cc1F (stereo not drawn)
950 (≈ 508 µg/mL) | CCCCCCCCCCCCN(CC(O)(Cn1cncn1)c1ccc(F)cc1F)c1nc(=O)[nH]cc1F (stereo not drawn)
30 (≈ 15.8 µg/mL) | O=c1nc(N(Cc2ccc(Cl)c(Cl)c2)CC(O)(Cn2cncn2)c2ccc(F)cc2F)c(F)c[nH]1 (stereo not drawn)
620 (≈ 253 µg/mL) | CCCN(CC(O)(Cn1cncn1)c1ccc(F)cc1F)c1nc(=O)[nH]cc1F (stereo not drawn)
1010 (≈ 512 µg/mL) | CCCCCCCCCCN(CC(O)(Cn1cncn1)c1ccc(F)cc1F)c1nc(=O)[nH]cc1F (stereo not drawn)
300 (≈ 127 µg/mL) | CCCCN(CC(O)(Cn1cncn1)c1ccc(F)cc1F)c1nc(=O)[nH]cc1F (stereo not drawn)

Test system: Calf thymus DNA
Experiment: Binding affinity to calf thymus DNA assessed as hyperchromic effect up to 2 x 10^-5mol/L by UV-Visible spectrometric analysis
Format: nucleic-acid assay
Conditions: Bos taurus

Activity | SMILES
Active | O=c1nc(N(Cc2ccc(Cl)c(Cl)c2)CC(O)(Cn2cncn2)c2ccc(F)cc2F)c(F)c[nH]1 (stereo not drawn)

Source: ChEMBL document CHEMBL4177619, “Novel potentially antifungal hybrids of 5-flucytosine and fluconazole: Design, synthesis and bioactive evaluation” (2017)
